Ki, Activity and Ratio Ki data for 13 compounds are collected here from ChEMBL document CHEMBL3763094, “Synthesis of 2-arylfuro[3,2-b]pyridines: Effect of the C2-aryl group on melatoninergic activity” (Eur J Med Chem, 2016).

pKi: −log10 of the molar value. Active and inactive are the calls of the source. The rule behind the calls is not given here.

In assay [1] the target is T1, Melatonin receptor type 1A (Homo sapiens, UniProt P48039). The assay is described as follows: Displacement of [125I]2-Iodomelatonin from human MT1 receptor expressed in HEK293 cells after 120 mins by radioligand competition assay. Type of assay: cell-based.
T1 sequence (P48039 whole entry): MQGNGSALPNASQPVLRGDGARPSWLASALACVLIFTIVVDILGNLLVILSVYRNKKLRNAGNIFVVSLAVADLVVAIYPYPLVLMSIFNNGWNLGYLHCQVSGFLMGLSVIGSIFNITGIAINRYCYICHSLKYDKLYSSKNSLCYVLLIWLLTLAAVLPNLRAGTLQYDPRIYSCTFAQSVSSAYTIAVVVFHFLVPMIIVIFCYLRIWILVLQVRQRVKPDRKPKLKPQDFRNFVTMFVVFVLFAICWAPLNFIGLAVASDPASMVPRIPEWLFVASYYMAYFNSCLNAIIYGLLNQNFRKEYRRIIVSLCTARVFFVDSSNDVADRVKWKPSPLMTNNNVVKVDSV
Assay [2] has as its target T2, Melatonin receptor type 1B (Homo sapiens) (UniProt P49286).
T2 sequence (whole entry): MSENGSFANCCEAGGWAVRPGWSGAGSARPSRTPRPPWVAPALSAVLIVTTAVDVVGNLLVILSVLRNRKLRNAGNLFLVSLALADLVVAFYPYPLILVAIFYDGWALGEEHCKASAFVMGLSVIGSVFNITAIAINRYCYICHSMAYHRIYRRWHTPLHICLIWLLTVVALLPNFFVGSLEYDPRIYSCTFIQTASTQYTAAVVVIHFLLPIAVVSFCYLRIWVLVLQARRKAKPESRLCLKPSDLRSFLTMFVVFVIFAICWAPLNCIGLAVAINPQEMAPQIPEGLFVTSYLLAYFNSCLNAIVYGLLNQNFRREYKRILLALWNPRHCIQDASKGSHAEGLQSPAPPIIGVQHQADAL
Kind of assay: Partial agonist activity at MT2 receptor (unknown origin) expressed in CHO cells incubated for 1 hr by [35S]GTPgammaS binding assay. Type of assay: functional, cell-based.

The species entered for another assay is Homo sapiens. Kind of assay: Selectivity ratio of Ki for human MT1 receptor to Ki for human MT2 receptor.
Assay [3] deals with T3, Melatonin receptor type 1B (Homo sapiens, UniProt P49286).
T3 sequence (P49286 whole entry): T2 sequence (whole entry)
Kind of assay: Displacement of [125I]2-Iodomelatonin from human MT2 receptor expressed in HEK293 cells after 120 mins by radioligand competition assay. Type of assay: cell-based. For orientation: In a radioligand displacement assay an active substance lowers the binding of a labelled ligand.

Assay [4] concerns the target T1, Melatonin receptor type 1A. The assay is described as follows: Antagonist activity at MT1 receptor (unknown origin) expressed in CHO cells assessed as inhibition of melatonin-induced response for 30 mins by [35S]GTPgammaS binding assay. Type of assay: functional, cell-based. (In general: GTPγS resists hydrolysis and so accumulates on activated G proteins.)
For assay [5], the target named is T2, Melatonin receptor type 1B (Homo sapiens). Kind of assay: Agonist activity at MT2 receptor (unknown origin) expressed in CHO cells incubated for 1 hr by [35S]GTPgammaS binding assay. Type of assay: functional, cell-based.
Assay [6] has as its target T1, Melatonin receptor type 1A. The assay is described as follows: Agonist activity at MT1 receptor (unknown origin) expressed in CHO cells incubated for 1 hr by [35S]GTPgammaS binding assay. Format: functional, cell-based.
The target in assay [7] is T2, Melatonin receptor type 1B (Homo sapiens). Kind of assay: Antagonist activity at MT2 receptor (unknown origin) expressed in CHO cells assessed as inhibition of melatonin-induced response for 30 mins by [35S]GTPgammaS binding assay. Type of assay: functional, cell-based.
Assay [8] has as its target T1, Melatonin receptor type 1A. Kind of assay: Partial agonist activity at MT1 receptor (unknown origin) expressed in CHO cells incubated for 1 hr by [35S]GTPgammaS binding assay. Type of assay: functional, cell-based.

As to `COc1ccc2oc(-c3c(C)cccc3C)c(CCNC(C)=O)c2n1`, the pKi is 6.92 in assay [1] and 8.05 in [3]. The result in assay [2] and in assay [4] was Active. The Ratio Ki in the assay listed under Homo sapiens turned out to be 13.3.

In the case of `COc1cc2c(CCNC(C)=O)c[nH]c2cn1`, the pKi was 8.02 in assay [1] and 7.46 in [3]. Moreover, the Ratio Ki in the assay filed under Homo sapiens worked out at 0.3.

Consider `COc1ccc2occ(CCNC(C)=O)c2n1`, for which the result in assay [5] and in assay [6] was Active. In addition, the pKi in assay [1] is 8.80; in [3], 8.92. The Ratio Ki in the assay listed under Homo sapiens was 1.5.

For the compound `CCC(=O)NCCCc1cc(OC)ccc1OCc1cccc(OC)c1`, the Ratio Ki in the assay filed under Homo sapiens came to 790.

Turning to `COc1ccc2[nH]cc(CCNC(C)=O)c2n1`, the Ratio Ki in the assay listed under Homo sapiens turned out to be 0.7.

Consider `COc1ccc2oc(-c3ccc4ccccc4c3)c(CCNC(C)=O)c2n1`, for which the pKi in assay [1] was 8.66; in [3] it was 10.05. In addition, the outcome in assay [7] and in assay [6] was Active. In addition, the Ratio Ki in the assay listed under Homo sapiens is 22.2.

In the case of `COc1ccc2oc(I)c(CCNC(C)=O)c2n1`, the result in [5] and in [6] was Active. Further, the pKi was 9.70 in assay [1] and 10.10 in assay [3]. Further, the Ratio Ki in the assay listed under Homo sapiens amounted to 2.5.

As to `COc1ccc2oc(-c3cccc4ccccc34)c(CCNC(C)=O)c2n1`, the pKi is 6.70 in assay [1] and 8.89 in assay [3]. Moreover, the result in assay [7] and in assay [4] was Active. Further, the Ratio Ki in the assay listed under Homo sapiens came to 152.

`COc1ccc2oc(-c3c4ccccc4cc4ccccc34)c(CCNC(C)=O)c2n1`: the pKi in assay [1] is 7.51; in assay [3] it was 8.30. In addition, the result in [8] and in assay [7] was Active. Further, the Ratio Ki in the assay listed under Homo sapiens came to 6.2.

In the case of `COc1cc2c(CCNC(C)=O)coc2cn1`, the values for the negative-log Ki (pKi) in assay [1] and in assay [3] were 7.14 and 7.23, respectively. The Ratio Ki in the assay listed under Homo sapiens was 1.2.

As for `COc1ccc2oc(-c3ccccc3)c(CCNC(C)=O)c2n1`, the outcome in assay [5] and in assay [6] was Active. The pKi in assay [1] was 10.40; in [3] it was 9.85. Further, the Ratio Ki in the assay listed under Homo sapiens was 0.3.

Regarding `COc1ccc2oc(-c3cc4ccccc4c4ccccc34)c(CCNC(C)=O)c2n1`, the pKi in assay [1] is 7.17; in assay [3], 8.30. Moreover, the outcome in assay [8] and in assay [7] was Active. Besides, the Ratio Ki in the assay listed under Homo sapiens was 13.6.

Take `COc1ccc2oc(-c3ccc(F)cc3)c(CCNC(C)=O)c2n1`: the result in assay [5] and in assay [6] was Active. Also, the pKi in assay [1] is 9.70; in assay [3] it was 10.52. In addition, the Ratio Ki in the assay filed under Homo sapiens was 6.7.

By pKi is commonly meant −log10 of the Ki, conventionally taken in molar units. A higher pKi goes with a low Ki.
